Laboratory results taken from publication PMC3871589, “Evaluation of STAT3 Signaling in ALDH+ and ALDH+/CD44+/CD24− Subpopulations of Breast Cancer Cells” (PLoS ONE, 2013).

Tests used:
[1] = test system: STAT1; details: cited from earlier work
[2] = test system: ALDH+ subpopulation in MDA-MB-231, SUM159, and SK-BR3 cancer cells; test: ALDEFLUOR assay, percentage of ALDH+ subpopulation; type: cell-based, human; details: un-separated MDA-MB-231, SUM159, SK-BR3; LLL12 5 µmol/L or Stattic 10 µM, 24 hours
Method: (§1) The ALDEFLUOR kit (StemCell Technologies) was used to isolate the population with high ALDH enzymatic activity as previously described. Briefly, cells were trypsinized to single cells using 0.05% trypsin and subsequently suspended in ALDEFLUOR assay buffer containing ALDH substrate (BAAA, 1 µmol/l per 1×10^6 cells) and then incubated for 40 minutes at 37°C. For each sample, an aliquot of cells was stained under identical conditions with 15 mmol/L diethylaminobenzaldehyde (DEAB), a specific ALDH inhibitor, as an ALDH^− control. Anti-human PE-CD24 and PE-Cy5-CD44 antibody (BioLegend) were used for CD44/CD24 identification and to separate ALDH^+/CD44^+/CD24^− and ALDH^−/CD44^+/CD24^+ cells when combined with ALDH staining. Analysis was performed using a FACStarPLUS (Becton Dickinion) flow cytometer. To assess the effect of STAT3 inhibitors on the subpopulation of ALDH^+ cells, un-separated breast cancer cells were treated with 5 µmol/L of LLL12 or 10 µmol/L Stattic for 24 hours prior to performing the ALDEFLUOR assay.

[3] = molecular target: AKT1 (Homo sapiens, UniProt P31749); test: Kinase profiler assay, AKT1; type: biochemical; details: bound stated jointly for the other protein kinases; Table S3
Method: (§2) The effects of LLL12 on twenty six purified human protein kinases were performed at the Millipore UK Limited (Dundee, UK) and Reaction Biology Corp. (Malvern, PA) using the Kinase profiler assay. Assays contained a peptide substrate, purified recombinant human protein kinases to be tested, and gamma-labeled ATP, magnesiumion. Radioactive phosphorylated product was measured and quantitated via a scintillation counter.

[4] = test system: ALDH− cells; test: MTT cell viability assay, ALDH− subpopulation; type: cell-based, human; details: Figure S4
Method: (§3) The breast cancer cells were seeded in 96-well plates (3,000 cells/well) in triplicates in a serum-free mammary epithelial basal medium. The following day, cancer cells were treated with 1 to 10 µmol/L of LLL12 or Stattic for 72 hours, STAT3 ShRNA or control GFP shRNA lentivirus (CTL ShRNA) for 48 hours. MTT (Thiazolyl Blue Tetrazolium Bromide, Sigma-Aldrich) assay was used to determine the cell viability.

[5] = molecular target: PDK1 (Homo sapiens, UniProt O15530); test: Kinase profiler assay, PDK1; type: biochemical; details: bound stated jointly for the other protein kinases; Table S3
Method: as §2

[6] = test system: STAT3 target genes Cyclin D1, survivin, Bcl-2 and Twist1; test: Expression of STAT3 target genes in un-separated breast cancer cells; type: cell-based, human; details: un-separated MDA-MB-231, SK-BR-3, SUM159 cells; 10 µM, 24 hours
Method: LLL12 was synthesized in Dr. Pui-Kai Li’s laboratory (College of Pharmacy, The Ohio State University). Un-separated cells were treated with 10 µM of LLL12 or DMSO for 24 hours, and the phosphorylation of STAT3 (Y705), and ERK 1/2 (T202/Y204), and expression of STAT3 downstream genes, cleaved caspase-3, and PARP were detected by Western blots. (JPG) Click here for additional data file.

[7] = molecular target: PI3K; test: Kinase profiler assay, PI3K; type: biochemical, human; details: bound stated jointly for the other protein kinases; Table S3
Method: as §2

[8] = 5 mg/kg IP daily; data not shown
[9] = test system: ALDH+/CD44+/CD24− subpopulation of MDA-MB-231 and SUM159 breast cancer cells; test: Cell viability of ALDH+/CD44+/CD24− subpopulation; type: cell-based, human; details: Figure 5D
Method: as §3

[10] = test system: STAT3-regulated genes; test: RT-PCR of STAT3-regulated genes in ALDH+/CD44+/CD24− cells; type: cell-based, human; details: 5 µM, 24 h
Method: The ALDH^+ and ALDH^+/CD44^+/CD24^− subpopulations of breast cancer cells were treated with LLL12 (5 µM) or DMSO for 24 h. RNA from the cells was then collected using RNeasy Kits (Qiagen). cDNA was constructed from a 500 ng sample of RNA using Omniscript RT (Qiagen). Primer sequences and source information can be found in Table S1. The intensity of bands was quantified and normalized to GAPDH.

[11] = molecular target: Syk (Homo sapiens, UniProt P43405); test: Kinase profiler assay, Syk; type: biochemical; details: 10 concentrations, 100 µM highest; Table S3
Method: as §2

[12] = test system: ALDH+ subpopulation of MDA-MB-231, SUM159, and SK-BR-3 cells; test: Cleaved caspase-3 in ALDH+ cells; type: cell-based, human; details: LLL12 5 µmol/L 24 hours, ShRNA 48 hours then puromycin
Method: as §1
After sorting by flow cytometry, ALDH^+ and ALDH^+/CD44^+/CD24^− stem-like cells were cultured in serum-free stem cell medium in ultra-low attachment six-well plates (Corning) to maintain cancer stem cell characteristics. […]

[13] = test system: ALDH+/CD44+/CD24− subpopulation of MDA-MB-231 and SUM159 breast cancer cells; test: Tumorsphere formation of ALDH+/CD44+/CD24− subpopulation; type: cell-based, human; details: Figure 5E
Method: ALDH^+ and ALDH^+/CD44^+/CD24^− cells were plated as single cells in ultra-low attachment six-well plates at a density of 250, 500, 1000 or 50,000 viable cells/well as previously described. On the second day after seeding, the ALDH^+ cancer cells were treated with 2.5–10 µmol/L of LLL12 or Stattic. For tumorsphere forming capacity assay, ALDH^+ or ALDH^− cells were plated as single cells in ultra-low attachment six-well plates at a density of 250, 500 or 1000 viable cells/well. Tumorsphere growth was observed under a microscope 10 to 15 days later.

[14] = molecular target: EGFR (Homo sapiens, UniProt P00533); test: Kinase profiler assay, EGFR; type: biochemical; details: bound stated jointly for the other protein kinases; Table S3
Method: as §2

[15] = molecular target: c-SRC (Homo sapiens, UniProt P12931); test: Kinase profiler assay, c-SRC; type: biochemical; details: 10 concentrations, 100 µM highest; Table S3
Method: as §2

c-SRC, sequence (P12931 whole entry): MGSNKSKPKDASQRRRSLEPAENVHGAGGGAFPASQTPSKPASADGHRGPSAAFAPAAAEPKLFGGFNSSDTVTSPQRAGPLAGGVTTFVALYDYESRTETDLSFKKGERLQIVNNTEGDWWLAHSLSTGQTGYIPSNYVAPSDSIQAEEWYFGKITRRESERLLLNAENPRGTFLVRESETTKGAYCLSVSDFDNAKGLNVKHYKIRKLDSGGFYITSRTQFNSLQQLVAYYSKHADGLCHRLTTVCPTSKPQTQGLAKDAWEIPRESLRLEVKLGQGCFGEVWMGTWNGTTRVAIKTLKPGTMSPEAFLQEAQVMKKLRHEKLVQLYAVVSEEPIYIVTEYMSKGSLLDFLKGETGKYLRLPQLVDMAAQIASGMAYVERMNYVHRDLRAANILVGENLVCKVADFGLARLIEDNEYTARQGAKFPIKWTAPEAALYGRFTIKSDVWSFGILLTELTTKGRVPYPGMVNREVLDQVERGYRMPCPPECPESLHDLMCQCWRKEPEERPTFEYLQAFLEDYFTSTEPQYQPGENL
AKT1, sequence (P31749 whole entry): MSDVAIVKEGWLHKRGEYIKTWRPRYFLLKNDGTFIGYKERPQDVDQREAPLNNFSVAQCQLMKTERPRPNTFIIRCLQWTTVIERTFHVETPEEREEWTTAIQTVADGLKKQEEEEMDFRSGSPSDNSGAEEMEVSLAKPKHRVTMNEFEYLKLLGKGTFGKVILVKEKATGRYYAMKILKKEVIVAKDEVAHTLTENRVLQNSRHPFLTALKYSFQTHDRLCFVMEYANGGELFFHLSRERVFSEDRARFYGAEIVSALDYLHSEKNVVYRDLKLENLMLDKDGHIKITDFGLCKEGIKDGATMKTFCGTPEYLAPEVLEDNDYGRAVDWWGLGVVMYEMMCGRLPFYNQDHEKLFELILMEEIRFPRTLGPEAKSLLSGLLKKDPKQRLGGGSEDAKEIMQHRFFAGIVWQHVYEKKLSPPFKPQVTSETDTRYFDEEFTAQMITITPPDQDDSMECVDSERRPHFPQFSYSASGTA
EGFR, sequence (P00533 25-1210): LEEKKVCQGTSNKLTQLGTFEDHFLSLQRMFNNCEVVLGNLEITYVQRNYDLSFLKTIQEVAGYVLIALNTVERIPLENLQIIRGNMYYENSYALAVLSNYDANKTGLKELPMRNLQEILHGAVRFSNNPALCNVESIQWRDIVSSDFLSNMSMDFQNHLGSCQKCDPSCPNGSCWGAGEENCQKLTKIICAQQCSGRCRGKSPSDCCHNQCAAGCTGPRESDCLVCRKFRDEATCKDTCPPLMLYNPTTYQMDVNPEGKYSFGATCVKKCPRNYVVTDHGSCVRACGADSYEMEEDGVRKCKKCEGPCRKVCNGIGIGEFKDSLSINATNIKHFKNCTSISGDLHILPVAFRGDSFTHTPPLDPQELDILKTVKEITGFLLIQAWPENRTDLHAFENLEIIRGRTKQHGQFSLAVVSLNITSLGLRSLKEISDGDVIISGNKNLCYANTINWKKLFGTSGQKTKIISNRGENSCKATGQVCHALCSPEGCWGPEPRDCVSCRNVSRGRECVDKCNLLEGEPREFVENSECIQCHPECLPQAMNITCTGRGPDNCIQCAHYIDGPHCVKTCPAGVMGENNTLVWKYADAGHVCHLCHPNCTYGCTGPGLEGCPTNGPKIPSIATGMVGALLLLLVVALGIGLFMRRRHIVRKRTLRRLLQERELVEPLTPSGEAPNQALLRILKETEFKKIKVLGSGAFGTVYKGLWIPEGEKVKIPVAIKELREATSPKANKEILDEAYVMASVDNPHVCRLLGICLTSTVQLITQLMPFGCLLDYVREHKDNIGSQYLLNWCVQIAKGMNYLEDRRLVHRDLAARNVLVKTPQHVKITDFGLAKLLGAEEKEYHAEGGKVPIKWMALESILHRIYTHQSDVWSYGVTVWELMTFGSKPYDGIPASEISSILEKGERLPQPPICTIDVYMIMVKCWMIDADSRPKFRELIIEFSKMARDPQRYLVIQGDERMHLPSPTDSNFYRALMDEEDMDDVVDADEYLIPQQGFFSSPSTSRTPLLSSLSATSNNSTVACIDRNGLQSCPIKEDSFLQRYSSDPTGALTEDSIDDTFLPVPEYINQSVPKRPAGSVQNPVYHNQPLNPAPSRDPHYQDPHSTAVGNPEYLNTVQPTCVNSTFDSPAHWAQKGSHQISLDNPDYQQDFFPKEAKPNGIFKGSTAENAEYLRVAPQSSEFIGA
PDK1, sequence (O15530 whole entry): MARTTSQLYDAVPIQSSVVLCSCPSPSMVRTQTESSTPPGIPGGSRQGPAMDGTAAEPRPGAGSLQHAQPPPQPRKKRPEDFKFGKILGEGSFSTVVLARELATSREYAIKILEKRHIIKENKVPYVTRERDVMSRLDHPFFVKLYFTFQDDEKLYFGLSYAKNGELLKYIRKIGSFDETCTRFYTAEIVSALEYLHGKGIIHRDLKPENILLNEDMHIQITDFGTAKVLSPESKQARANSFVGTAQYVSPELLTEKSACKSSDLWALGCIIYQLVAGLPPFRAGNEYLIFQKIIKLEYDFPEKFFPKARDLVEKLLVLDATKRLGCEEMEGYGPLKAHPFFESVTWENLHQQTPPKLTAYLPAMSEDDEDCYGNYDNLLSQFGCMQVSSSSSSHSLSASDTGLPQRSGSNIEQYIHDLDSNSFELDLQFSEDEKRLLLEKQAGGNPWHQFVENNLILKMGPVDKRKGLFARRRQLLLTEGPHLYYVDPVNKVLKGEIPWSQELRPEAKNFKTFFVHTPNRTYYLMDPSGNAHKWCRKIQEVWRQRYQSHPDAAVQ

For NS(=O)(=O)c1cccc2c1C(=O)c1cccc(O)c1C2=O [LLL12], the “STAT1 DNA binding activity” value [1] is given as “not”, the “ALDH+ subpopulation (percentage)” value [2] is given as “decrease” and the IC50 [3] is given as ≥ 77.9 µM. The “effects against the ALDH− cells (cell viability)” value [4] was “some inhibitory effects”, the IC50 [5] was ≥ 77.9 µM and the “expression of STAT3 target genes Cyclin D1, survivin, Bcl-2 and Twist1” value [6] was “inhibited”. For the same compound, the IC50 [7] was ≥ 77.9 µM, the “body weight compared to vehicle control” value [8] was “did not differ” and the cell viability [9] was “inhibited”. The “expression of Cyclin D1, survivin, Bcl-2, Bcl-XL and Notch1” value [10] was “down-regulated”, the IC50 [11] was > 100 µM and the “cleaved caspase-3 in ALDH+ cells” value [12] was “induced cleaved caspase-3”. For the same compound, the tumorsphere forming capacity [13] was “inhibited”, the IC50 [14] was ≥ 77.9 µM and the IC50 [15] was > 100 µM.
